Peptide text beside a SMILES is read from it.
Legend:
SPC25 = biological target: T1, SPC25 (Homo sapiens, UniProt Q9HBM1); experiment: Surface plasmon resonance, CBP1 binding to SPC25; details: SPR, BIAcore T200, CBP1 binding to SPC25; read-out: dissociation constant Kd
T1 sequence (Q9HBM1 1-224): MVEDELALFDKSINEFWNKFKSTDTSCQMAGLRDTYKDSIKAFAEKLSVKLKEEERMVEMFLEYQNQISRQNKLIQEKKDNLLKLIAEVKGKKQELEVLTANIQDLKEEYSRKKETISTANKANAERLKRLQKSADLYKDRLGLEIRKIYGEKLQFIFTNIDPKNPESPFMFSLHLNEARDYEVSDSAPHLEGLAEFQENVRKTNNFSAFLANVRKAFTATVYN
Protocol: Analysis of Surface Plasmon Resonance: Analysis of Surface Plasmon Resonance Binding kinetics between SPC25 and the indicated peptide-CBP1 were measured by Surface Plasmon Resonance (SPR) using a BIAcore T200 instrument (GE Healthcare, CA, USA). The dissociation constant (Kd) was calculated according to the BIA-evaluation software.

[1] = Survival of non-tumor-bearing mice on CBP1; assay type: in vivo, BALB/c-Nude mice; parameters: key to Survival status: 0: Alive; 1: Dead; details: for Survival status / Survival time (Days after CDDP treatment): CBP1 10mg/kg; for Survival status: day 42; for Survival time (Days after CDDP treatment): alive at this day
[2] = system: EOC organoids (HGS-202, HGS-203, HGS-107); experiment: Cell Counting Kit-8 assay in EOC patient-derived organoids; assay type: cell-based; details: EOC organoids HGS-202, HGS-203, HGS-107, compared with controls
[3] = Serum urea, creatinine, alanine aminotransferase, aspartate aminotransferase (hepatorenal function); details: for ALT / AST / CRE (creatinine) / UREA: mice under CBP1 treatment, after 6 weeks
Description: Subsequently, we established a BALB/c‐Nude mouse model of EOC by intraperitoneally injecting OVCAR8 cells stably expressing a luciferase gene, as described previously. On reaching a bioluminescence signal of 2 × 10^7 p/s/cm^2/sr, mice were divided into 4 treatment groups: Vehicle, CBP1, CDDP, and CDDP/CBP1 (n = 7 per group; Figure 5I).
H) Serum urea, creatinine, alanine aminotransferase, and aspartate aminotransferase levels in normal and CBP1-treated nude mice assessed to evaluate hepatorenal function. […] Error bars represent the means ± SD of independent experiments; ns denotes not significant. In (A) and (H), two-sided Student’s t test was used.

[4] = 10 mg/kg, i.p., once every 2 days, 6 weeks, BALB/c-Nude mice without tumors

Compound: CC[C@H](C)[C@H](NC(=O)[C@H](Cc1ccc(O)cc1)NC(=O)[C@H](C)NC(=O)CNC(=O)CNC(=O)[C@H](Cc1c[nH]c2ccccc12)NC(=O)[C@@H]1CCCN1C(=O)[C@H](CO)NC(=O)[C@@H](NC(=O)[C@H](Cc1ccc(O)cc1)NC(=O)[C@H](CC(C)C)NC(=O)[C@@H](N)Cc1c[nH]cn1)C(C)C)C(=O)N1CCC[C@H]1C(=O)N[C@@H](CCCNC(=N)N)C(=O)N[C@H](C(=O)N[C@@H](CC(C)C)C(=O)N[C@@H](CC(N)=O)C(=O)N[C@@H](CCC(=O)O)C(=O)N[C@H](C(=O)N[C@@H](CCCCN)C(=O)N[C@@H](CC(N)=O)C(=O)N[C@@H](Cc1ccc(O)cc1)C(=O)N[C@@H](CCC(=O)O)C(=O)N[C@@H](CCCNC(=N)N)C(=O)O)C(C)C)[C@@H](C)O [CBP1] (H-HLYVSPWGGAYIPRTLNEVKNYER-OH)
- Kd (SPC25): 13.3 ± 2.88 µM
- effect on survival of normal mice [1, 4]: did not cause considerable hepatorenal toxicity or affect survival in the mice
- Survival status ([1]; animal 1): 0
- Survival status ([1]; animal 2): 0
- Survival status ([1]; animal 3): 0
- Survival status ([1]; animal 4): 0
- Survival status ([1]; animal 5): 0
- Survival status ([1]; animal 6): 0
- Survival status ([1]; animal 7): 0
- Survival time (Days after CDDP treatment) ([1]; animal 1): ≥ 42 days
- Survival time (Days after CDDP treatment) ([1]; animal 2): ≥ 42 days
- Survival time (Days after CDDP treatment) ([1]; animal 3): ≥ 42 days
- Survival time (Days after CDDP treatment) ([1]; animal 4): ≥ 42 days
- Survival time (Days after CDDP treatment) ([1]; animal 5): ≥ 42 days
- Survival time (Days after CDDP treatment) ([1]; animal 6): ≥ 42 days
- Survival time (Days after CDDP treatment) ([1]; animal 7): ≥ 42 days
- CDDP cytotoxicity in presence of CBP1 [2]: markedly enhanced CDDP cytotoxicity
- hepatorenal toxicity [3, 4]: did not cause considerable hepatorenal toxicity
- ALT ([3]; animal #1): 61.601 U/L
- AST ([3]; animal #1): 95.798 U/L
- CRE (creatinine) ([3]; animal #1): 0.334 mg/dL
- UREA ([3]; animal #1): 19.36 mg/dL
- ALT ([3]; animal #2): 48.846 U/L
- AST ([3]; animal #2): 169.051 U/L
- CRE (creatinine) ([3]; animal #2): 0.381 mg/dL
- UREA ([3]; animal #2): 24.41 mg/dL
- ALT ([3]; animal #3): 37.083 U/L
- AST ([3]; animal #3): 149.075 U/L
- CRE (creatinine) ([3]; animal #3): 0.362 mg/dL
- UREA ([3]; animal #3): 17.46 mg/dL
- ALT ([3]; animal #4): 56.136 U/L
- AST ([3]; animal #4): 97.689 U/L
- CRE (creatinine) ([3]; animal #4): 0.247 mg/dL
- UREA ([3]; animal #4): 15.11 mg/dL
- ALT ([3]; animal #5): 58.209 U/L
- AST ([3]; animal #5): 124.231 U/L
- CRE (creatinine) ([3]; animal #5): 0.314 mg/dL
- UREA ([3]; animal #5): 16.87 mg/dL
- ALT ([3]; animal #6): 57.394 U/L
- AST ([3]; animal #6): 120.889 U/L
- CRE (creatinine) ([3]; animal #6): 0.253 mg/dL
- UREA ([3]; animal #6): 21.13 mg/dL
- ALT ([3]; animal #7): 54.623 U/L
- AST ([3]; animal #7): 133.397 U/L
- CRE (creatinine) ([3]; animal #7): 0.252 mg/dL
- UREA ([3]; animal #7): 15.13 mg/dL
